Laboratory results published in patent US6545008B1, “Pyrimidine derivatives and processes for the preparation thereof” (Yuhan Corporation, priority 1998, dated 2003).
Counter-ions that a name gives are not always drawn.

Target: T1, proton pump (H+/K+-ATPase) (UniProt P19156)
T1 construct: The gastric vesicle as an enzyme source was prepared by the same method as in the Experiment 1—1 of WO 94/14795
Test: Inhibition of proton pump (H+/K+-ATPase) activity, gastric vesicle enzyme source
Type: biochemical
Conditions: pH 6.4, 37° C., 30 min preincubation, linear regression over 5 concentrations, read-out: IC50, inhibitory effects on proton pump (H+/K+-ATPase) activity
Method: Test Example 1: Inhibition of proton pump (H^+/K^+-ATPase) activity
The gastric vesicle as an enzyme source was prepared by the same method as in the Experiment 1—1 of WO 94/14795. Further, the inhibitory effect of proton pump activity was measured by the same method as in Experiment 1-2 of WO 94/14795.
Namely, the proton pump activity stimulated by Mg^++ was used as a negative control group, and the activity stimulated by Mg^++ and K^+ was used as a positive control group. Omeprazole was used as the control compound.
Test tubes were divided into 4 groups: Group 1 as negative control group (n=3), Group 2 as positive control group (n=3), Group 3 (n=5×2) to be administered with the compound of the present invention and Group 4 (n=5×2) to be administered with the control compound.
The inhibitory effects of Group 3 and 4 on proton pump activity were measured by employing the compounds prepared in Examples and omeprazole, respectively, each of which was dissolved in dimethyl sulfoxide (DMSO) at 5 different concentrations.
To each of Groups 1, 2, 3, and 4 was added 0.1 ml of magnesium chloride (4 mM) dissolved in 40 mM Tris-HCl buffer (pH 6.4) and 100 μg of enzyme source. The 50 μl of potassium chloride (60 mM) and 50 μl of ammonium chloride (6 mM) dissolved in 40 mM Tris-HCl buffer (pH 6.4) were added to all groups except for Group 1.
10 μl of dimethyl sulfoxide was added to each of Group 1 and 2; and to Group 3 was added […] of dimethyl sulfoxide solution prepared by dissolving compound of Example at 5 different concentrations (n=5×2). To Group 4, was added 10 μl of the solution prepared by dissolving omeprazole in dimethyl sulfoxide at 5 different concentrations (40, 20, 10, 5, 2.5 μM) (n=5×2). […] Tris-HCl buffer (pH 6.4) was added thereto so as to make the total volume 400 μl.
Thereafter the test tubes of each Group were placed at 37° C. for 30 minutes for the preincubation. ATP solution (6.6 mM) was added until the total volume became 500 μl. After the reaction was carried out at 37° C. for 30 minutes, 25% cold trichloroactic acid was added to terminate the enzyme reaction. The released inorganic phosphorous was measured by an automatic analyzer (Express 550, Corning).
The difference between Group 1 and Group 2 represents the proton pump activity activated by K^+ only. The IC50s of Group 3 and 4 were calculated using the Linear Regression method. The concentrations of the test compounds inhibiting 50% of the proton pump activity are represented as IC50 in Table 1.

| Structure (SMILES) | IC50 [nM] |
| --- | --- |
| Cc1nc(Nc2ccc(F)c(F)c2)nc(N2CCc3ccccc3C2C)c1C (centres unmarked) [Example 1, 5,6-dimethyl-2-(3,4-difluorophenylamino)-4-(1-methyl-1,2,3,4-tetrahydroisoquinolin-2-yl)pyrimidine hydrochloride] | 1600 |
| Cc1nc(Nc2ccc(F)cc2F)nc(N2CCc3c(Cl)cccc3C2C)c1C (centres unmarked) [Example 39, 5,6-dimethyl-2-(2,4-difluorophenylamino)-4-(1-methyl-5-chloro-1,2,3,4-tetrahydroisoquinolin-2-yl)pyrimidine hydrochloride] | 900 |
| Cc1nc(Nc2ccccc2)nc(N2CCc3ccc(F)cc3C2C)c1C (centres unmarked) [Example 4, 5,6-dimethyl-2-phenylamino-4-(1-methyl-7-fluoro-1,2,3,4-tetrahydroisoquinolin-2-yl)pyrimidine hydrochloride] | 1000 |
| Cc1c(CF)nc(Nc2ccc(F)cc2)nc1N1CCc2ccccc2C1C (centres unmarked) [Example 24, 5-methyl-6-fluoromethyl-2-(4-fluorophenylamino)-4-(1-methyl-1,2,3,4-tetrahydroisoquinolin-2-yl)-pyrimidine hydrochloride] | 900 |
| Cc1nc(Nc2ccc(Cl)cc2)nc(N2CCc3cc(F)ccc3C2C)c1C (centres unmarked) [Example 20, 5,6-dimethyl-2-(4-chlorophenylamino)4-(1-methyl-6-fluoro-1,2,3,4-tetrahydroisoquinolin-2-yl)pyrimidine hydrochloride] | 1200 |
| Cc1nc(Nc2ccc(F)cc2)nc(N2CCc3ccccc3C2CF)c1C (centres unmarked) [Example 26, 5,6-dimethyl-2-(4-fluorophenylamino)-4-(1-fluoromethyl-1,2,3,4-tetrahydroisoquinolin-2-yl)pyrimidine hydrochloride] | 3700 |
| COc1ccc2[nH]c([S+]([O-])Cc3ncc(C)c(OC)c3C)nc2c1 (centres unmarked) [Omeprazole, reference compound] | 11500 |
| Cc1cc(F)ccc1Nc1nc(C)c(C)c(N2CCc3ccc(F)cc3C2C)n1 (centres unmarked) [Example 6, 5,6-dimethyl-2-(2-methyl-4-fluorophenylamino)-4-(1-methyl-7-fluoro-1,2,3,4-tetrahydroisoquinolin-2-yl)pyrimidine hydrochloride] | 300 |
| Cc1cc(F)ccc1Nc1nc(C)c(C)c(N2CCc3cc(F)ccc3C2C)n1 (centres unmarked) [Example 17, 5,6-dimethyl-2-(2-methyl-4-fluorophenylamino)-4-(1-methyl-6-fluoro-1,2,3,4-tetrahydroisoquinolin-2-yl)pyrimidine hydrochloride] | 200 |
| Cc1nc(Nc2ccc(F)c(F)c2)nc(N2CCc3ccc(F)cc3C2C)c1C (centres unmarked) [Example 7, 5,6-dimethyl-2-(3,4-difluorophenylamino)-4-(1-methyl-7-fluoro-1,2,3,4-tetrahydroisoquinolin-2-yl)pyrimidine hydrochloride] | 2600 |
| Cc1nc(Nc2ccc(F)cc2F)nc(N2CCc3ccc(F)cc3C2C)c1C (centres unmarked) [Example 8, 5,6-dimethyl-2-(2,4-difluorophenylamino)-4-(1-methyl-7-fluoro-1,2,3,4-tetrahydroisoquinolin-2-yl)pyrimidine hydrochloride] | 700 |
| Cc1ccccc1Nc1nc(C)c(C)c(N2CCc3ccc(F)cc3C2C)n1 (centres unmarked) [Example 5, 5,6-dimethyl-2-(2-methylphenylamino)-4-(1-methyl-7-fluoro-1,2,3,4-tetrahydroisoquinolin-2-yl)pyrimidine hydrochloride] | 600 |
| Cc1nc(Nc2ccc(F)cc2F)nc(N2CCc3cc(F)ccc3C2C)c1C (centres unmarked) [Example 19, 5,6-dimethyl-2-(2,4-difluorophenylamino)-4-(1-methyl-6-fluoro-1,2,3,4,-tetrahydroisoquinolin-2-yl)pyrimidine hydrochloride] | 1000 |
| Cc1nc(Nc2ccc(F)cc2)nc(N2CCc3ccccc3C2C)c1CF (centres unmarked) [Example 25, 5-fluoromethyl-6-methyl-2-(4-fluorophenylamino)-4-(1-methyl-1,2,3,4-tetrahydroisoquinolin-2-yl)-pyrimidine hydrochloride] | 4100 |
| Cc1nc(Nc2ccc(F)cc2)nc(N2CCc3c(Cl)cccc3C2C)c1C (centres unmarked) [Example 35, 5,6-dimethyl-2-(4-fluorophenylamino)-4-(1-methyl-5-chloro-1,2,3,4-tetrahydroisoquinolin-2-yl)pyrimidine hydrochloride] | 900 |
| Cc1nc(Nc2ccccc2F)nc(N2CCc3ccc(F)cc3C2C)c1C (centres unmarked) [Example 11, 5,6-dimethyl-2-(2-fluorophenylamino)-4-(1-methyl-7-fluoro-1,2,3,4-tetrahydroisoquinolin-2-yl)pyrimidine hydrochloride] | 1900 |
| Cc1nc(Nc2cccc(F)c2)nc(N2CCc3ccc(F)cc3C2C)c1C (centres unmarked) [Example 12, 5,6-dimethyl-2-(3-fluorophenylamino)4-(1-methyl-7-fluoro-1,2,3,4-tetrahydroisoquinolin-2-yl)pyrimidine hydrochloride] | 3200 |
| Cc1nc(Nc2ccc(F)cc2F)nc(N2CCc3ccccc3C2C)c1C (centres unmarked) [Example 2, 5,6-dimethyl-2-(2,4-difluorophenylamino)-4-(1-methyl-1,2,3,4-tetrahydroisoquinolin-2-yl)pyrimidine hydrochloride] | 3800 |
| Cc1nc(Nc2ccc(F)cc2)nc(N2CCc3cc(F)ccc3C2C)c1C (centres unmarked) [Example 14, 5,6-dimethyl-2-(4-fluorophenylamino)-4-(1-methyl-6-fluoro-1,2,3,4-tetrahydroisoquinolin-2-yl)pyrimidine hydrochloride] | 700 |
| Cc1nc(Nc2ccc(Cl)cc2)nc(N2CCc3ccc(F)cc3C2C)c1C (centres unmarked) [Example 9, 5,6-dimethyl-2-(4-chlorophenylamino)-4-(1-methyl-7-fluoro-1,2,3,4-tetrahydroisoquinolin-2-yl)pyrimidine hydrochloride] | 900 |
